According to US9193731B2, “Antimicrobial compounds and methods of making and using the same” (Melinta Therapeutics, Inc., priority 2009, dated 2015):

System: Escherichia coli strain ATCC25922
Experiment: standard microdilution assay to determine minimum inhibitory concentrations (MICs)
Assay type: cell-based
Settings: Escherichia coli strain ATCC25922, microdilution
Procedure, shortened: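 E. coli strain ATCC25922 tested per CLSI microdilution methodology (about 100 microliters per well) to find minimum inhibitory concentrations. Activity scored categorically at a 16 micrograms/ml threshold.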

Structure (SMILES) | E. coli ATCC25922 MIC
N=C(N)NCCCNCc1ccc(-n2cc3cc(-c4cc(C(=O)NCCCF)cc(N5CCNCC5)c4)[nH]c3nc2=O)cc1 [Compound 997] | + (a “+” indicates that the compound has an MIC value of 16 micrograms/ml or less)
N=C(N)NCCCNCc1ccc(-n2cc3cc(-c4cc(CCNC(N)=O)cc(OCC(F)CN)c4)[nH]c3nc2=O)cc1 (centres unmarked) [Compound 2012a] | − (a “−” indicates that the compound has an MIC value greater than 16 micrograms/ml)
N=C(N)NCCCNCc1ccc(-n2cc3cc(-c4cc(C(=O)Nc5cc(F)cc(F)c5)cc(N5CCNCC5)c4)[nH]c3nc2=O)cc1 [Compound 978] | + (a “+” indicates that the compound has an MIC value of 16 micrograms/ml or less)
CC(C)(C)NCC(=O)Nc1ccc(-c2cc3cn(-c4ccc(C(=O)NCCCNC(=N)N)cc4)c(=O)nc3[nH]2)cc1 [Compound 1281] | + (a “+” indicates that the compound has an MIC value of 16 micrograms/ml or less)
CN(C)Cc1ccc(-n2cc3cc(-c4ccc(S(=O)(=O)N(Cc5ccc(Cl)c(Cl)c5)C5CCNCC5)cc4)[nH]c3nc2=O)cc1 [Compound 983] | − (a “−” indicates that the compound has an MIC value greater than 16 micrograms/ml)
N=C(N)NCCCNCc1ccc(-n2cc3cc(-c4ccc(C(NC5CN(C(=N)N)C5)C(F)(F)F)cc4)[nH]c3nc2=O)cc1 (centres unmarked) [Compound 1432] | + (a “+” indicates that the compound has an MIC value of 16 micrograms/ml or less)
N=C(N)NCCCNCc1ccc(-n2cc3cc(-c4cccc(OCC5(CN)CC5)c4)[nH]c3nc2=O)cc1 [Compound 1413] | + (a “+” indicates that the compound has an MIC value of 16 micrograms/ml or less)
CC1CN(S(=O)(=O)c2ccc(-c3cc4cn(-c5ccc(CNCCCN)cc5)c(=O)nc4[nH]3)cc2)CC(C)N1 (centres unmarked) [Compound 853] | + (a “+” indicates that the compound has an MIC value of 16 micrograms/ml or less)
CN(C)Cc1ccc(-n2cc3cc(-c4ccc(S(=O)(=O)N(CC5CC5)C5CCNCC5)cc4)[nH]c3nc2=O)cc1 [Compound 1001] | − (a “−” indicates that the compound has an MIC value greater than 16 micrograms/ml)
N=C(N)NCCCNCc1ccc(-n2cc3cc(-c4cc(C(=O)N5CCc6ccccc6C5)cc(N5CCNCC5)c4)[nH]c3nc2=O)cc1 [Compound 1009] | + (a “+” indicates that the compound has an MIC value of 16 micrograms/ml or less)
CSc1cc(CCCCN)cc(-c2cc3cn(-c4ccc(CNCCCNC(=N)N)cc4)c(=O)nc3[nH]2)c1 [Compound 2066a] | + (a “+” indicates that the compound has an MIC value of 16 micrograms/ml or less)
N=C(N)NCCCNCc1ccc(-n2cc3cc(-c4cccc(C(CCCN)C(F)(F)F)c4)[nH]c3nc2=O)cc1 (centres unmarked) [Compound 2075a] | + (a “+” indicates that the compound has an MIC value of 16 micrograms/ml or less)
CNCCN1CCCC(c2cc3cn(-c4ccc(CNCCCNC(=N)N)cc4)c(=O)nc3[nH]2)C1 (centres unmarked) [Compound 2042a] | + (a “+” indicates that the compound has an MIC value of 16 micrograms/ml or less)
N=C(N)NCCCNCc1ccc(-n2cc3cc(-c4cc(CCCCN)cc(OC(F)F)c4)[nH]c3nc2=O)cc1 [Compound 2074a] | + (a “+” indicates that the compound has an MIC value of 16 micrograms/ml or less)
N=C(N)NCCCNCc1ccc(-n2cc3cc(-c4cccc(OCC5(CN)CCC5)c4)[nH]c3nc2=O)cc1 [Compound 1434] | + (a “+” indicates that the compound has an MIC value of 16 micrograms/ml or less)
N=C(N)NCCCNC(=O)c1ccc(-n2cc3cc(-c4ccc(S(=O)(=O)N(CC5CC5)C5CCNCC5)cc4)[nH]c3nc2=O)cc1 [Compound 996] | + (a “+” indicates that the compound has an MIC value of 16 micrograms/ml or less)
N=C(N)NCCCNC(c1ccc(-n2cc3cc(-c4cc(CCCCN)cc(OC(F)(F)F)c4)[nH]c3nc2=O)cc1)C(F)(F)F (centres unmarked) [Compound 2081a] | + (a “+” indicates that the compound has an MIC value of 16 micrograms/ml or less)
N=C(N)NCCCNCc1ccc(-n2cc3cc(-c4cccc(S(=O)(=O)N(CCn5nccc5N)C5CCNCC5)c4)[nH]c3nc2=O)cc1 [Compound 1262] | − (a “−” indicates that the compound has an MIC value greater than 16 micrograms/ml)
COC(CN)COc1cccc(-c2cc3cn(-c4ccc(CNCCCNC(=N)N)cc4)c(=O)nc3[nH]2)c1 (centres unmarked) [Compound 1453] | + (a “+” indicates that the compound has an MIC value of 16 micrograms/ml or less)
N=C(N)NCCCNCc1ccc(-n2cc3cc(-c4ccc(S(=O)(=O)NC5CCOCC5)cc4)[nH]c3nc2=O)cc1 [Compound 864] | − (a “−” indicates that the compound has an MIC value greater than 16 micrograms/ml)
NCCCNCCCCCn1cc2cc(-c3ccc(S(=O)(=O)NC4CCNCC4)cc3)[nH]c2nc1=O [Compound 873] | + (a “+” indicates that the compound has an MIC value of 16 micrograms/ml or less)

Same assay, conditions: Escherichia coli, ATCC25922, Escherichia coli strain ATCC25922, microdilution; read-out: E. coli ATCC25922 MIC

Structure (SMILES) | MIC [µg/mL]
N=C(N)NCCCNCc1ccc(-n2cc3cc(-c4cccc(OCCCN5CCNCC5)c4)[nH]c3nc2=O)cc1 [Compound 1162] | < 16
NCc1ccc(-n2cc3cc(-c4ccc(S(=O)(=O)N(CCCN5Cc6ccccc6C5)C5CCNCC5)cc4)[nH]c3nc2=O)cc1 [Compound 1065] | > 16
N=C(N)NCCCNCc1ccc(-n2cc3cc([C@H]4C[C@@H](N)[C@@H](CO)O4)[nH]c3nc2=O)cc1 [Compound 1266] | < 16
CNCc1ccc(-n2cc3cc(-c4ccc(S(=O)(=O)N(CCCN5CCCC(O)C5)C5CCNCC5)cc4)[nH]c3nc2=O)cc1 (centres unmarked) [Compound 1079] | > 16
NCCCNCc1ccc(-c2cn3cc(-c4ccc(S(=O)(=O)N5CCN(C(=O)OCc6ccccc6)CC5)cc4)[nH]c3nc2=O)cc1 [Compound 791] | > 16
N=C(N)NCCCNCc1ccc(-n2cc3cc(C4CCCN(CCCF)C4)[nH]c3nc2=O)cc1 (centres unmarked) [Compound 2017a] | < 16
O=c1nc2[nH]c(-c3ccc(S(=O)(=O)NC4CCNCC4)c(Cl)c3)cc2cn1-c1ccc(CNCCCF)cc1 [Compound 261] | > 16
N=C(N)NCCCNCc1ccc(-n2cc3cc(-c4cc(CCCCN)cc(C(F)(F)F)c4)[nH]c3nc2=O)cc1 [Compound 2029a] | < 16
CCOCCOc1ccccc1-c1cc2cn(-c3ccc(CN)cc3)c(=O)nc2[nH]1 [Compound 1131] | > 16
CN(C)C(=O)c1cc(-c2cc3cn(-c4ccc(CNCCCNC(=N)N)cc4)c(=O)nc3[nH]2)cc(N2CCNCC2)c1 [Compound 797] | < 16
NCCCN(CCCN)Cc1ccc(-n2cc3cc(Cn4nnc5ccccc54)[nH]c3nc2=O)cc1 [Compound 182] | > 16
NCc1ccc(-n2cc3cc(-c4cccc(S(=O)(=O)N(CCN5CCCC5)C5CCNCC5)c4)[nH]c3nc2=O)cc1 [Compound 1183] | > 16
N=C(N)NCCCCOc1ccc(-c2cn3cc(-c4ccc(Br)cc4)[nH]c3nc2=O)cc1 [Compound 813] | > 16
NCc1ccc(-n2cc3cc(-c4cccc(OCCNC(N)=O)c4)[nH]c3nc2=O)cc1 [Compound 1142] | > 16
N=C(N)NCCCNCc1ccc(C2N=c3cc(C4CNCCO4)[nH]c3=NC2=O)cc1 (centres unmarked) [Compound 1329] | > 16
NCc1ccc(-n2cc3cc(-c4cccc(OCCCN5CCNCC5)c4)[nH]c3nc2=O)cc1 [Compound 1107] | > 16
N=C(N)NCCCNCc1ccc(-c2cn3nc(C4CC4)[nH]c3nc2=O)cc1 [Compound 661] | > 16
N=C(N)NCCCNCc1ccc(-c2cn3cc(-c4ccc(S(=O)(=O)NC5CCNCC5)cc4)[nH]c3nc2=O)cc1 [Compound 772] | < 16

Structure (SMILES) | MIC [µg/mL]
NCCCCN1CCC(n2cc3cc(-c4ccc(F)cc4)[nH]c3nc2=O)C1 (centres unmarked) [Compound 559] | > 16
N=C(N)NCCCNCc1ccc(-n2cc3cc(-c4cccc(S(=O)(=O)NC5CCNCC5)c4)[nH]c3nc2=O)cc1 [Compound 836] | < 16
N=C(N)NCCCN(CCCN)Cc1ccc(-n2cc3cc(-c4ccc(C(=O)NC5CN6CCC5CC6)cc4)[nH]c3nc2=O)cc1 (centres unmarked) [Compound 216] | < 16
N=C(N)NCCCN1CC=C(c2cn3cc(-c4ccc(F)cc4)[nH]c3nc2=O)CC1 [Compound 566] | > 16
N=C(N)NCCCNCc1ccc(-n2cc3cc(-c4ccc(S(=O)(=O)C5CCNCC5)cc4)[nH]c3nc2=O)cc1 [Compound 1180] | < 16
CS(=O)(=O)N1CCN(C(=O)c2ccc(-c3cn4cc(-c5ccc(CNCCCN)cc5)c(=O)nc4[nH]3)cc2)CC1 [Compound 701] | > 16
N=C(N)NCCCNCc1ccc(-c2cn3cc(-c4ccc(C(=O)NC5CN6CCC5CC6)cc4)[nH]c3nc2=O)cc1 (centres unmarked) [Compound 778] | < 16
NCc1ccc(-n2cc3cc(-c4ccc(C(=O)NC5CCNCC5)cc4)[nH]c3nc2=O)cc1 [Compound 224] | < 16
Cc1ccn(CCCN(C2CCNCC2)S(=O)(=O)c2cccc(-c3cc4cn(-c5ccc(C(N)=O)cc5)c(=O)nc4[nH]3)c2)n1 [Compound 1126] | > 16
N=C(N)NCCCNCc1ccc(-n2cc3cc(C4C[C@@H](N)[C@@H](CO)O4)[nH]c3nc2=O)cc1 (some centres unmarked) [Compound 1245] | < 16
O=C(NC1CCNCC1)c1c(F)cc(-c2cc3cn(-c4ccc(CNCCCF)cc4)c(=O)nc3[nH]2)cc1F [Compound 262] | > 16
NCc1ccc(-n2cc3cc(C4C[C@@H](N)[C@@H](CO)O4)[nH]c3nc2=O)cc1 (some centres unmarked) [Compound 1301] | > 16
CN(C(=O)c1ccc(-c2cn3cc(-c4ccc(CNCCCNC(=N)N)cc4)c(=O)nc3[nH]2)cc1)C1CCNCC1 [Compound 736] | < 16
CS(=O)(=O)c1ccc(-c2cn3cc(-c4ccc(CNCCCN)cc4)c(=O)nc3[nH]2)cc1 [Compound 631] | > 16
N=C(N)CCCOc1cccc(-c2cc3cn(-c4ccc(CNCCCNC(=N)N)cc4)c(=O)nc3[nH]2)c1 [Compound 1191] | > 16
NCCCNCc1ccc(-n2cc3cc(-c4ccc(C(F)(F)F)cc4)[nH]c3nc2=O)cc1 [Compound 611] | > 16
CC(C)(N)c1cc2cn(-c3ccc(CNCCCN)cc3)c(=O)nc2[nH]1 [Compound 625] | > 16
